Reference: patent publication EP0587396A1, “Use of hypoxoside derivatives for the treatment of viral infections” (VIROSTAT (NA) NV, priority 1992, dated 1994)
Where two headings read alike, the source gives them in different places.

How the values were obtained:
Type in all cases: cell-based
[1] = tested on: respiratory syncytial virus (RSV); assay: Inhibition of RSV syncytium formation in Hep-2 cells
Description: Compound XVIII was added to Hep-2 cells growing as slope cultures in plastics tubes to give final concentrations respectively of 50, 100 and 200 µg/mℓ. The cultures were then respectively inoculated with a high standard viral dose, one tenth (1/10) of said standard dose, and one hundredth (1/100) of said standard dose of respiratory syncytial virus (RSV). After four days of incubation at 33°C the cells were visually inspected using an inverted phase contrast microscope and scored for the extent of syncytium formation, i.e. single cells containing three or more nuclei, as follows: a = 0 - 25%, b = 25 - 50%, c = 50 - 75% and d = 75 - 100% of cells having three or more nuclei.

[2] = Toxicity: lymphocyte proliferation assay with MTT in the HIV-1 infected PBL cultures; conditions: human, pbls, Table 8 continued (6 days incubation), read-out: Proliferation as a percentage of control value
Description: Possible toxic effects of the test substances were measured by viability testing using Trypan blue or a proliferation assay using3-(4,5-dimethylthiazol-2-yl)-2,5-diphenyl-2H-tetrazolium bromide (MTT) on day 4 or day 6 after initiation of the experiment (Borenfreund et al: Toxicol. In Vitro, 1988, 2, 1-6).
The toxicity of the drug was expressed as a percentage inhibition of lymphocyte proliferation as measured with MTT and compared with controls receiving the virus but no drug.

cytomegalo-virus (CMV) = assay: Cytopathic effect of CMV in primary foetal human fibroblasts
Description: (§1) Compound XVII was added to primary foetal human fibroblasts in tissue culture, to yield final concentrations respectively of 50, 100 and 200 µg/mℓ. The cultures were then respectively inoculated with a high standard viral dose, with one tenth (1/10) of said standard dose and with one fiftieth (1/50) of said standard dose of cytomegalo-virus (CMV) and incubated for four days.
The cytopathic effect of CMV was determined by microscopic visual inspection of the cell cultures, in terms of the extent of gross swelling of the cells, where: a = 0 - 25%, b = 25 - 50%, c = 50 - 75% and d = 75 - 100% of the cells affected by gross swelling.

[3] = tested on: human immunodeficiency virus type 1 (HIV-1); assay: Inhibition of HIV-1 proliferation in PHA-activated human PBL's (p24 core protein by Sandwich ELISA, HIV RNA by labelled DNA probe hybridization); conditions: for inhibition at 50 µg/mL: read-out: % inhibition:HIV-RNA, 50 μg/mℓ; for inhibition at 100 µg/mL: read-out: % inhibition:HIV-RNA, 100 μg/mℓ
Description: Compounds I - XXVIII were subjected to in vitro testing for inhibition of human immunodeficiency virus type 1 (HIV-1) proliferation as follows:
Human peripheral blood lymphocytes (PBL's) obtained by density gradient centrifugation of blood from healthy volunteers at a blood bank were pooled and used for the propagation of HIV-1 in vitro.
The PBL's were polyclonally activated with phytohaemagglutinin (PHA) and subjected to quality controls whereby their viability was tested with Trypan blue exclusion and the expression of activation antigens, CD4⁺ and CD25⁺ was measured by immunofluorescence. Prior to adding the test substance, the activated PBL's were exposed to a standardized titre of HIV-1 virus and after incubation for 60 minutes the cells were washed twice and plated into microtitre plates at a concentration of 2X10⁶ cells/well. The medium contained interleukin-2 and in control wells the virus produced between 50 and 100 ng/mℓ of p24 core protein on day 4. The test substance was added to these cultures either in water or dimethyl sulphoxide (DMSO) depending on solubility characteristics. The final DMSO concentration, when used, was always 1% v/v.
HIV replication was measured as the production of p24 core protein and the production of HIV RNA on days 2, 3 and 4, or on days 3, 4, 5 and 6. Core protein p24 was measured using 'Sandwich ELISA' technology using inter alia a monoclonal antibody against p24 core protein. The HIV RNA was measured using a specific labelled DNA probe against HIV RNA and the process of hybridization.
Results were expressed as percent inhibition of HIV-1 p24 core protein production or RNA production on days 3, 4 or 6.
In each test, cells were also exposed to HIV-1 and 3'-azido-3'-deoxythymidine (also known as Zidovudine or AZT) at 100, 10, 1 and 0.1 ng/mℓ. This was a positive control and compounds tested were compared to the inhibitory effect of 10 ng/mℓ AZT.
In all of the following Tables, percentage inhibition refers to inhibition of p24 core protein production and HIV RNA production relative to infected controls. Percentage AZT inhibition refers to inhibition caused by 10 ng/mℓ AZT at the end of the experiment, i.e. after 4 or 6 days.

[4] = tested on: primary foetal human fibroblasts; assay: Signs of toxicity in the fibroblast cultures of the CMV test; conditions: 200 µg/mℓ
Description: as §1

[5] = Toxicity: lymphocyte proliferation assay with MTT in the HIV-1 infected PBL cultures; conditions: human, pbls, Table 8 (3 days incubation), read-out: Proliferation as a percentage of control value
[6] = Human immunodeficiency virus 1, 72 h, 3 days incubation
[7] = Human immunodeficiency virus 1, 144 h, 6 days incubation

Structure (SMILES): O=S(=O)(O)Oc1ccc(C#CC/C=C/c2ccc(OS(=O)(=O)O)c(O)c2)cc1O [Compound XVII]
- Extent of Syncytium Formation ([1]; 50 µg/mℓ, viral dose 1/10, 4 days at 33°C (virus control c)): c (c = 50 - 75%)
- Extent of Syncytium Formation ([1]; 50 µg/mℓ, viral dose 1/100, 4 days at 33°C (virus control b)): a (a = 0 - 25%)
- Extent of Syncytium Formation ([1]; 50 µg/mℓ, viral dose Full, 4 days at 33°C (virus control d)): d (d = 75 - 100% of cells having three or more nuclei)
- Extent of Syncytium Formation ([1]; 100 µg/mℓ, viral dose 1/10, 4 days at 33°C (virus control c)): a (a = 0 - 25%)
- Extent of Syncytium Formation ([1]; 100 µg/mℓ, viral dose 1/100, 4 days at 33°C (virus control b)): Nil
- Extent of Syncytium Formation ([1]; 100 µg/mℓ, viral dose Full, 4 days at 33°C (virus control d)): c (c = 50 - 75%)
- Extent of Syncytium Formation ([1]; 200 µg/mℓ, viral dose 1/10, 4 days at 33°C (virus control c)): Nil
- Extent of Syncytium Formation ([1]; 200 µg/mℓ, viral dose 1/100, 4 days at 33°C (virus control b)): Nil
- Extent of Syncytium Formation ([1]; 200 µg/mℓ, viral dose Full, 4 days at 33°C (virus control d)): Nil
- viability ([2]; 50 μg/mℓ): 96%
- viability ([2]; 100 μg/mℓ): 94%
- Extent of the Cytopathic Effect of Cytomegalo-Virus (cytomegalo-virus (CMV); 50 µg/mℓ, viral dose 1/10, 4 days of incubation (virus control b+)): b (b = 25 - 50%)
- Extent of the Cytopathic Effect of Cytomegalo-Virus (cytomegalo-virus (CMV); 50 µg/mℓ, viral dose 1/50, 4 days of incubation (virus control a)): a (a = 0 - 25%)
- Extent of the Cytopathic Effect of Cytomegalo-Virus (cytomegalo-virus (CMV); 50 µg/mℓ, viral dose Full, 4 days of incubation (virus control c)): bc
- Extent of the Cytopathic Effect of Cytomegalo-Virus (cytomegalo-virus (CMV); 100 µg/mℓ, viral dose 1/10, 4 days of incubation (virus control b+)): ab
- Extent of the Cytopathic Effect of Cytomegalo-Virus (cytomegalo-virus (CMV); 100 µg/mℓ, viral dose 1/50, 4 days of incubation (virus control a)): a-
- Extent of the Cytopathic Effect of Cytomegalo-Virus (cytomegalo-virus (CMV); 100 µg/mℓ, viral dose Full, 4 days of incubation (virus control c)): bc
- Extent of the Cytopathic Effect of Cytomegalo-Virus (cytomegalo-virus (CMV); 200 µg/mℓ, viral dose 1/10, 4 days of incubation (virus control b+)): Nil
- Extent of the Cytopathic Effect of Cytomegalo-Virus (cytomegalo-virus (CMV); 200 µg/mℓ, viral dose 1/50, 4 days of incubation (virus control a)): Nil
- Extent of the Cytopathic Effect of Cytomegalo-Virus (cytomegalo-virus (CMV); 200 µg/mℓ, viral dose Full, 4 days of incubation (virus control c)): Nil
- % inhibition:p24 core protein ([3]; 50 μg/mℓ, 3 days incubation): 47%
- % inhibition:p24 core protein ([3]; 50 μg/mℓ, 6 days incubation): 87%
- % inhibition:p24 core protein ([3]; 100 μg/mℓ, 3 days incubation): 88%
- inhibition at 50 µg/mL [3, 6]: 68%
- inhibition at 100 µg/mL [3, 6]: 93%
- inhibition at 50 µg/mL [3, 7]: 91%
- inhibition at 100 µg/mL [3, 7]: 100%
- cultures showing signs of toxicity due to the compound [4]: 5 out of 8
- viability ([5]; 50 μg/mℓ): 84%
- viability ([5]; 100 μg/mℓ): 80%
